For orientation: IC50 means the concentration that inhibits the measured activity by half.

For assay [1], the system named is H1993. Kind of assay: Cell viability dose-response, H1993. The following applies: Homo sapiens, NCI-H1993; Tables 3 and 4; read-out: IC50 (uM) vs indicated non-small cell lung cancer cell line H1993. Format: cell-based. Here is the method:
(§1) FIG. 6A. […] Cell viability is plotted vs. compound concentration. Compound was added to cells plated at 15% confluence in 96-well plates in RPMI-1640 media supplemented with 5% Fetal Bovine Serum and 2 mM L-Glutamine. After 4 days of incubation, ATP levels were measured using Cell Titer Glo (Promega). Data are presented as the average of 2 replicates ±SEM.
(§2) Selectivity may be measured by the half maximal inhibitory concentration (IC50), which, as used herein, is a measure of the effectiveness of a compound in killing cells. This quantitative measure indicates how much of a particular compound is needed to kill a particular cell population by half (e.g., as indicated by the amount of ATP). […] The IC50 can be determined by constructing a dose-response curve. The lower the IC50, the higher the potency, and the greater the difference between IC50 values for different cell lines (e.g., sensitive lines vs. insensitive lines, and sensitive lines vs. normal lines) the greater the selectivity. […]
(§3) With this information, we synthesized and tested a series of small molecules derived in conception from the oxalamide and chromone scaffold including N-acyl ureas, as shown in Tables 6-8. Each compound was tested in a 12-point dose-response study starting at 50 micromolar and decreasing in 3-fold increments to sub-nanomolar concentrations, in duplicate. Additionally, one or more additional cell line was tested in the same way.

Assay [2] relates to H2122. Put plainly: Cell viability dose-response, H2122. Type of assay: cell-based, human. The note with it: Homo sapiens, NCI-H2122, Tables 3 and 4; read-out: IC50 (uM) vs indicated non-small cell lung cancer cell line H2122. A digest of the protocol:
(§4)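 Cells plated at 15% confluence in RPMI-1640 with 5% FBS and 2 mM L-glutamine, treated with compound in a 12-point, 3-fold dilution series from 50 micromolar, in duplicate. ATP measured by Cell Titer Glo after 4 days; IC50 taken from the dose-response curve.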

Assay [3] deals with HBEC30KT. Kind of assay: Cell viability (ATP, Cell Titer Glo, 4 days), HBEC30KT. Type of assay: cell-based, human. The note with it: Homo sapiens, Tables 3 and 4; read-out: HBEC30KT IC50. A general note: In ATP-based viability assays light output follows the ATP content of the culture.
In assay [4] the test system is H1155. Kind of assay: Cell viability dose-response, H1155. Format: cell-based. The following applies: Homo sapiens, NCI-H1155; Tables 3 and 4; read-out: IC50 (uM) vs indicated non-small cell lung cancer cell line H1155. As to the method: as §1, §2, §3
Assay [5] deals with H1395. Put plainly: Cell viability dose-response, H1395. Format: cell-based. The note with it: Homo sapiens, NCI-H1395; Tables 3 and 4; read-out: IC50 (uM) vs indicated non-small cell lung cancer cell line H1395. Here is the method: as §1, §2, §3
The subject of assay [6] is HCC44. Put plainly: Cell viability dose-response, HCC44. Format: cell-based, human. The note with it: Homo sapiens, HCC44, Tables 3 and 4; read-out: IC50 (uM) vs indicated non-small cell lung cancer cell line HCC44. The essentials: (§5)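 Steps: seed cells to 15% confluence in RPMI-1640 supplemented with 5% fetal bovine serum and 2 mM glutamine; add compound across a concentration range; incubate 4 days; measure total ATP with CellTiter-Glo. IC50 is derived from the curve.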

In assay [7] the test system is HCC4017. Kind of assay: Cell viability dose-response, HCC4017. The following applies: Homo sapiens, HCC4017, Tables 3 and 4; read-out: IC50 (uM) vs indicated non-small cell lung cancer cell line HCC4017. Type of assay: cell-based, human. As to the method: as §1, §2, §3
Assay [8] has as its system H2009. Kind of assay: Cell viability dose-response, H2009. Type of assay: cell-based, human. The following applies: Homo sapiens, NCI-H2009; Tables 3 and 4; read-out: IC50 (uM) vs indicated non-small cell lung cancer cell line H2009. The essentials: as §5
In assay [9] the test system is H2073. Put plainly: Cell viability dose-response, H2073. The following applies: Homo sapiens, NCI-H2073, Tables 3 and 4; read-out: IC50 (uM) vs indicated non-small cell lung cancer cell line H2073. Type of assay: cell-based, human. The essentials:
as §5

Assay [10] deals with H1819. Kind of assay: Cell viability dose-response, H1819. Type of assay: cell-based, human. The note with it: Homo sapiens, NCI-H1819, Tables 3 and 4; read-out: IC50 (uM) vs indicated non-small cell lung cancer cell line H1819. A digest of the protocol: as §4
The subject of assay [11] is HCC366. Put plainly: Cell viability dose-response, HCC366. Format: cell-based. The note with it: Homo sapiens, Tables 3 and 4, read-out: IC50 (uM) vs indicated non-small cell lung cancer cell line HCC366. As to the method: as §1, §2, §3
In assay [12] the test system is HCC95. Put plainly: Cell viability dose-response, HCC95. Type of assay: cell-based. The note with it: Homo sapiens, Tables 3 and 4, read-out: IC50 (uM) vs indicated non-small cell lung cancer cell line HCC95. Here is the method:
as §1, §2, §3

Assay [13] concerns H460. Put plainly: Cell viability dose-response, H460. Format: cell-based. The following applies: Homo sapiens, NCI-H460; Tables 3 and 4; read-out: IC50 (uM) vs indicated non-small cell lung cancer cell line H460. As to the method: as §1, §2, §3

Consider `O=C(Nc1ccc(F)c(Cl)c1)c1sc2ccccc2c1Cl` [SW118753], for which the IC50 was 73 µM in assay [1]; 0.8 µM in [2]; 108 µM in [3]; 105 µM in [4]; 600 µM in [5]; 265 µM in [6]. In addition, the 50% inhibitory concentration (IC50) in assay [7] was 700 µM; in [8] it was 65 µM; in assay [9] it was 0.9 µM; in [10] it was 38 µM; in [11], 375 µM; in assay [12], 300 µM.

`O=C(Nc1nnc(C2CCCCC2)s1)c1sc2ccccc2c1Cl` [SW173997]: the IC50 in assay [1] came out at 16.9 µM; in assay [2], 0.27 µM; in assay [4], 23.8 µM; in [5], 41.3 µM; in assay [6], 23.1 µM; in [13], 44.5 µM. The IC50 in assay [7] stood at 24 µM; in assay [8], 21.5 µM; in assay [9], 11.4 µM; in assay [10], 48.5 µM; in assay [11], 40.9 µM; in [12], 23.8 µM.

With `Cc1cc(C)nc(SCC(=O)Nc2nc3ccccc3s2)n1` [SW053831], the IC50 in assay [1] was 29 µM; in [2], 47 µM; in [3] it was 60 µM; in [4], 43 µM; in assay [5], 65 µM; in assay [6], 33 µM. For the same compound, the IC50 turned out to be 98 µM in assay [7]; 104 µM in [8]; 0.85 µM in assay [9]; 63 µM in assay [10]; 80 µM in [11]; 85 µM in assay [12].

As to `O=C(Nc1nc2ccccc2s1)c1ccc(-c2ccccc2)cc1` [SW001811], the IC50 in assay [1] was found to be 85 µM; in assay [2] it was 0.7 µM; in assay [3] it was 348 µM; in [4] it was 125 µM; in [5], 185 µM; in [6], 165 µM. In addition, the 50% inhibitory concentration (IC50) in assay [13] amounted to 450 µM; in [7], 120 µM; in [8], 125 µM; in assay [10], 59 µM; in [11], 220 µM; in assay [12], 58 µM.

For `O=C(Nc1nc2c(s1)CCCC2)c1ccccc1Oc1ccccc1` [SW045964], the IC50 worked out at 55.9 µM in assay [1]; 1 µM in assay [2]; 321 µM in assay [3]; 389 µM in assay [4]; 620 µM in assay [5]; 489 µM in assay [6]. The IC50 in assay [7] was 407 µM; in [8] it was 55 µM; in assay [9], 3.2 µM; in assay [10], 143 µM; in assay [11], 149 µM; in assay [12], 140 µM.

`O=C(c1ccc(O)cc1)c1ccc(NC(=O)c2sc3ccccc3c2Cl)cc1` [SW202856-1]: the IC50 in assay [1] came to 13.6 µM; in assay [2], 33.8 µM; in assay [3] it was 6.08 µM; in assay [4], 20.4 µM; in assay [6], 1.06 µM; in assay [13] it was 44.5 µM. For the same compound, the half-maximal inhibitory concentration (IC50) in [7] was determined as 13.3 µM; in assay [8], 4.76 µM; in assay [9] it was 48.4 µM; in [10] it was 40.2 µM; in assay [11], 40.6 µM; in [12], 12.8 µM.

As to `O=C(Nc1nc2ccccc2s1)c1ccc([N+](=O)[O-])cc1` [SW003992], the IC50 in [1] was found to be 524 µM; in assay [2], 0.14 µM; in assay [3], 1630 µM; in [4] it was 2870 µM; in assay [5], 1580 µM; in [6], 3500 µM. Further, the IC50 turned out to be 1440 µM in assay [7]; 0.65 µM in assay [9]; 358 µM in [10]; 1040 µM in [11]; 2270 µM in [12].

Source of the values: patent US9789096B2, “Methods and compositions for selective and targeted cancer therapy” (Board of Regents of the University of Texas System, priority 2013, dated 2017).
